Reference: patent publication US20240309360A1, “TRANS-ACTIVATORS AND METHODS AND USE THEREOF” (THE GOVERNING COUNCIL OF THE UNIVERSITY OF TORONTO, priority 2021, published 2024)

What was measured:
[1] = test system: EGFP reporter (7×TetO array, basal CMV promoter) in HEK293T reporter cell line; experiment: Arrayed recruitment assay, PYL1 fusions individually recruited to reporter via ABI1-dCas9 with ABA; format: cell-based, human; set-up: key to independently validated as transactivating fragment: Fragments marked with * were independently validated; settings: for independently validated as transactivating fragment: fragment fused to PYL1, arrayed format; for activation of the EGFP reporter when individually tested: PYL1 fusion, ABA 48 hours, flow cytometry
Source text: Treatment of cells with abscisic acid (ABA) induces an interaction between ABI1 and PYL1, thereby recruiting the potential transcriptional activator to a specific genomic locus defined by the guide RNA (gRNA). As a reporter, a HEK293T cell line that contains a stably integrated construct with a 7×TetO array and a basal CMV promoter driving the expression of EGFP was used (Gao et al., 2016). A monoclonal cell line that expresses ABI1-dCas9 and a single gRNA targeting TetO was generated by lentiviral infection.
Arrayed recruitment assays. Reporter cells stably co-expressing ABI-dCas9 and TetO gRNA were seeded either on 48-well or 96-well plates (Sarstedt) to reach 50-70% confluency on the day of transfection. 150 ng of each construct to be tested was transfected with polyethylenimine (PEI) at a ratio of 0.6 μl reagent. The day after transfection, recruitment was induced by treatment with ABA (100 μM). […] Inhibitors were dissolved in DMSO to a stock concentration of 10 mM. The final concentrations used were 100 nM for flavopiridol, 300 nM for JQ1, 1 μM for A-485, 2.5 μM for CX-4945 and 3 μM for AZ191. All inhibitors were a kind gift from the Structural Genomics Consortium (SGC). 48 hours after induction, cells were dissociated and resuspended in flow buffer using a liquid handing robot (TECAN) and analyzed by LSR Fortessa (BD). Cells were gated on high EBFP2 and RFP as a measure of gRNA and transfection control, respectively. Flow cytometry data was analyzed using FlowJo (v10).

[2] = test system: EGFP reporter (7×TetO array, basal CMV promoter) in HEK293T reporter cell line; experiment: TAD-seq pooled activation screen of 60-aa fragments fused to PYL1; format: cell-based, human; settings: for Hit high GFP: high GFP population (top 1%); for logFC high GFP / logFC medium GFP: log 2 fold change of counts, 100 μM ABA 48 hours; for logFC high GFP: sorted high GFP cells (top 1%) vs unsorted cells; for logFC medium GFP: sorted medium GFP cells (top 2-5%) vs unsorted cells; for Hit medium GFP: medium GFP population (top 2-5%)
Source text: A fragment library of 75 activators identified in our screen was generated, using 60 amino-acid tiles every 20 aa such that every amino acid was represented by three different fragments (FIG. 3A). The pooled fragment library was fused to PYL1 and recruited to the same GFP reporter used in the original ORFeome screen (FIG. 3A). […] The GFP positive population was sorted into two independent replicates, and fragments in each population were quantified by sequencing. However, in contrast to the ORFeome screen, both high GFP cells (top 1%) and medium GFP cells (top 2-5%) were sorted to potentially identify transactivators of different strength.
Activation domain tiling library generation. A tiling library was generated from 75 proteins identified as activators in the ORFeome screen. Oligonucleotides containing a 5′ adapter […] (SEQ ID NO: 23) and a 3′ adapter […] (SEQ ID NO: 24) to generate a 5′ adapter ([…]) (SEQ ID NO: 11) and a 3′ adapter ([…]) (SEQ ID NO: 12) were synthesized as pooled libraries (Twist Biosciences). 6×50 μl PCR reactions were set up using NEBNext Ultra II Q5 master mix (New England Biolabs) with 5 nM oligos as template. PCR conditions were optimized to find the lowest cycle with a clean visible product at the expected 300 bp length. The thermocycling condition was an initial 30 s at 98° C., then 2 cycles of 98° C. for 10 s, 63° C. for 20 s, and 72° C. for 15 s, followed by 10 more cycles of 98° C. for 10 s and 72° C. for 30 s with a final extension at 72° C. for 5 min. Primers were designed to have Gateway compatible flanking sequences. The resulting libraries were gel extracted by QIAgen gel extraction kit after loading on a 2% TAE gel for 2 hrs at 60V and subsequently cloned into pDONR221 using 20 separate BP reactions in total of 5 μl reactions. The entry plasmid pool was transformed after an overnight reaction into DHSalpha competent E. coli and incubated overnight on LB agar plates containing kanamycin ([…]). Colonies were collected and plasmid DNA purified. 20 LR reactions were then set up as described in the previous section. Each reaction was transformed into NEB 10-beta chemically competent E. coli and grown on LB agar plates containing carbenicillin ([…]) overnight at 30° C. Colonies were counted to ensure >200-fold coverage at each step of cloning, pooled and maxiprepped.
Pooled activation screens. ORFeome and transactivation tiling libraries tagged at the C-terminus with PYL1 were packaged into lentiviral particles. A clonal EGFP reporter cell line stably co-expressing ABI-dCas9 and a gRNA targeting the promoter were transduced at low multiplicity of infection (MOI) with approximately 30% cell survival after puromycin (1 μg/mL) selection. Untransduced cells under the same condition were fully eliminated. Sufficient cells were transduced to maintain >500 fold coverage of the libraries. Recruitment was induced by treating cells with 100 μM abscisic acid (ABA, Sigma) for 48 hours. In parallel, a control batch of cells were treated with equal total volume of DMSO. Cells were then washed in PBS, treated with dissociation buffer (1 mM EDTA, 10 mM KCl, 150 mM NaCl, 5 mM sodium bicarbonate, 0.1% glucose) and resuspended in flow buffer (5 mM EDTA, 25 mM HEPES pH 7, 1% BSA, PBS). High GFP population for each library, top 1% for ORFeome and two bins of top 1% and the next 4% for the TAD screen, were sorted and their genomic DNA directly extracted using QIAmp DNA Blood Mini Kit (QIAGEN).
TAD sequencing. Performed nested PCR on the purified genomic DNA using primers targeting T7 promoter and PYL1 of the backbone vector in the first step creating a ˜470 bp product. Products of the first reaction were then pooled and amplified for an additional 10 steps using primers targeting outside the Gateway sites creating a ˜300 bp product. Libraries were quantified on Qubit dsDNA Broad Range kit and paired-end sequenced on an Illumina MIseq with a custom PAGE-purified R1 sequencing primer. […]

Substance	independently validated as transactivating fragment [1]	Hit high GFP [2]	logFC high GFP [2]	logFC medium GFP [2]	Hit medium GFP [2]	activation of the EGFP reporter when individually tested [1]
ATF6-2: 60-aa TAD-seq fragment of ATF6 (HRLDEDWDSALFAELGYFTDTDELQLEAANETYENNFDNLDFDLDLVPWESDIWDINNQI; listed as Homo sapiens)	ATF6-2*	hit	4.688	1.477	hit	–
ATXN7L3-1: 60-aa TAD-seq fragment of ATXN7L3 (MKMEEMSLSGLDNSKLEAIAQEIYADLVEDSCLGFCFEVHRAVKCGYFFLDDTDPDSMKD; listed as Homo sapiens)	1*	hit	1.638	1.684	hit	–
BRD8-25: 60-aa TAD-seq fragment of BRD8 (GEELDFETVGDIIAIIEDKVDDHPEVLDVAAVEAALSFCEENDDPQSLPGPWEHPIQQER; listed as Homo sapiens)	BRD8-25*	hit	1.567	1.834	hit	–
C3orf62-12: 60-aa TAD-seq fragment of C3orf62 (QDSPFKEEAWALLMDKSPQKATDADPGSLKQAFDDHNIVETVLDLEEDYNVMTSFKYQIE; listed as Homo sapiens) [Fragment C3orf62-12]	12*	hit	6.493	−0.6067	–	–
CBX2: CBX-C domain of CBX2 (SASPPSTGQNPSVSVQTSQDWKPTRSLIEHVFVTDVTANLITVTVKESPTSVGFFNLRHY; listed as Homo sapiens)	–	–	–	–	–	the most potent activator
CBX8: CBX-C domain of CBX8 (RPSLIARIPVARILGDPEEESWSPSLTNLEKVVVTDVTSNFLTVTIKESNTDQGFFKEKR; listed as Homo sapiens)	–	–	–	–	–	activated the reporter weakly
CITED1-8: 60-aa TAD-seq fragment of CITED1 (ESLSPSAGAQSPAIIDSDPVDEEVLMSLVVELGLDRANELPELWLGQNEFDFTADFPSSC; listed as Homo sapiens)	8*	hit	6.826	−1.166	–	–
CITED2-12: 60-aa TAD-seq fragment of CITED2 (AMLPPNVIDTDFIDEEVLMSLVIEMGLDRIKELPELWLGQNEFDFMTDFVCKQQPSRVSC; listed as Homo sapiens)	12*	hit	6.148	−0.9005	–	–
FAM90A1-20: 60-aa TAD-seq fragment of FAM90A1 (HPAASHDGAQPLRVLFRRLENGRWSSSLLTAPSFHSPEKPGAFLAQSPHVSEKSEGPCVR; listed as Homo sapiens)	20*	hit	3.017	1.616	hit	–
HOXB2: HOX family transcription factor tested as PYL1 fusion	–	–	–	–	–	characterized as activators
KLF7-1: 60-aa TAD-seq fragment of KLF7 (MDVLASYSIFQELQLVHDTGYFSALPSLEETWQQTCLELERYLQTEPRRISETFGEDLDC; listed as Homo sapiens)	KLF7-1*	hit	5.998	1.29	hit	–
SERTAD1-10: 60-aa TAD-seq fragment of SERTAD1 (IDTSMYDNELWAPASEGLKPGPEDGPGKEEAPELDEAELDYLMDVLVGTQALERPPGPGR; listed as Homo sapiens)	–	–	0.2349	0.8385	hit	–
SERTAD2-11: 60-aa TAD-seq fragment of SERTAD2 (SEAGTQKLDGPQESRADDSKLMDSLPGNFEITTSTGFLTDLTLDDILFADIDTSMYDFDP; listed as Homo sapiens)	–	hit	2.48	1.822	hit	–
SPDYE4-4: 60-aa TAD-seq fragment of SPDYE4 (SEEELEEELELERAPEPEDTWVVETLCGLKMKLKRKRASSVLPEHHEAFNRLLGDPVVQK; listed as Homo sapiens)	–	hit	4.316	1.914	hit	–
SS18L2-2: 60-aa TAD-seq fragment of SS18L2 (QETIQRLLEENDQLIRCIVEYQNKGRGNECVQYQHVLHRNLIYLATIADASPTSTSKAME; listed as Homo sapiens)	–	–	1.012	1.166	hit	–
YAF2-6: 60-aa TAD-seq fragment of YAF2 (EKKDKVEKEKSEKETTSKKNSHKKTRPRLKNVDRSSAQHLEVTVGDLTVIITDFKEKTKS; listed as Homo sapiens)	–	hit	4.316	1.771	hit	–
YAF2: YAF2_RYBP domain of YAF2; same SEQ ID NO as YAF2-7 (SHKKTRPRLKNVDRSSAQHLEVTVGDLTVIITDFKEKTKSPPASSAASADQHSQSGSSSD; listed as Homo sapiens)	–	–	–	–	–	robustly activated the reporter
ZXDC-13: 60-aa TAD-seq fragment of ZXDC (YLESGGSARTDYRAIQLAKEKKQRGAGSNAGASQSTQRKIKEGKMSPPHFHASQNSWLCG; listed as Homo sapiens)	–	hit	2.377	1.734	hit	–
ZXDC-16: 60-aa TAD-seq fragment of ZXDC (SLVVPSGGRPGPAPAAGVQCGAQGVQVQLVQDDPSGEGVLPSARGPATFLPFLTVDLPVY; listed as Homo sapiens)	–	–	0.4785	0.7293	hit	–
p300: known transcriptional activator p300 fused to PYL1 [reference compound]	–	–	–	–	–	robust induction of GFP
